Results on 20 compounds are retold here after the NIST ThermoML archive (doi:10.1016/j.jct.2013.02.004).

A short description of this series: activity coefficient (dimensionless); of the first substance listed, at infinite dilution; xn = mol fraction of the nth substance listed. Particulars: 101 kPa, Liquid, Chromatography, x1 = 0.

Numbers after ± are expanded uncertainties.

For the compound `CCC(C)(C)C` [2,2-dimethylbutane] + CCCCCC[n+]1ccc2ccccc2c1.N#C[S-], the activity coefficient (308.15 K) was determined as 91.5 ± 6.3; the activity coefficient (318.15 K) amounted to 72.2 ± 4.9; the activity coefficient (328.15 K) is 57.2 ± 3.9; the activity coefficient (338.15 K) amounted to 45.5 ± 3.1; the activity coefficient (348.15 K) was 37.9 ± 2.6; the activity coefficient (358.15 K) turned out to be 31.2 ± 2.1. Under “368.15 K”, the activity coefficient stood at 25.6 ± 1.8.
`COC(C)(C)C` [2-methoxy-2-methylpropane] + CCCCCC[n+]1ccc2ccccc2c1.N#C[S-]: the activity coefficient reads like this: (308.15 K) 8.61 ± 0.59; (318.15 K) 8.13 ± 0.55; (328.15 K) 7.65 ± 0.52; (338.15 K) 7.18 ± 0.49; (348.15 K) 6.99 ± 0.48; (358.15 K) 6.61 ± 0.45. Moreover, where the note is “368.15 K”, the activity coefficient was 6.28 ± 0.43.
As for `CCCCCCC` [heptane] + CCCCCC[n+]1ccc2ccccc2c1.N#C[S-], the activity coefficient by setting is: (308.15 K) 53 ± 3.6; (318.15 K) 47 ± 3.2; (328.15 K) 42.5 ± 2.9; (338.15 K) 38 ± 2.6; (348.15 K) 35.2 ± 2.4; (358.15 K) 32 ± 2.2. Further, the activity coefficient (368.15 K) turned out to be 29.1 ± 2.
In the case of `CCCCC(C)=O` [2-hexanone] + CCCCCC[n+]1ccc2ccccc2c1.N#C[S-], the activity coefficient runs as follows: (328.15 K) 2.62 ± 0.18; (338.15 K) 2.63 ± 0.18; (348.15 K) 2.64 ± 0.18; (358.15 K) 2.65 ± 0.18; (368.15 K) 2.65 ± 0.18.
Regarding `C=CCCCC` [hex-1-ene] + CCCCCC[n+]1ccc2ccccc2c1.N#C[S-], the activity coefficient runs as follows: (308.15 K) 20.2 ± 1.4; (318.15 K) 18.2 ± 1.2; (328.15 K) 16.9 ± 1.2; (338.15 K) 15.4 ± 1.1; (348.15 K) 14.4 ± 1; (358.15 K) 13.3 ± 0.9. In addition, the activity coefficient (368.15 K) turned out to be 12.3 ± 0.8.
Regarding `c1ccccc1` [benzene] + CCCCCC[n+]1ccc2ccccc2c1.N#C[S-], the activity coefficient was determined as 1.47 ± 0.1 (328.15 K); 1.48 ± 0.1 (338.15 K); 1.48 ± 0.1 (348.15 K); 1.48 ± 0.1 (358.15 K); 1.49 ± 0.1 (368.15 K).
Regarding `O` [water] + CCCCCC[n+]1ccc2ccccc2c1.N#C[S-], the activity coefficient runs as follows: (328.15 K) 0.401 ± 0.034; (338.15 K) 0.406 ± 0.034; (348.15 K) 0.41 ± 0.03; (358.15 K) 0.399 ± 0.034; (368.15 K) 0.418 ± 0.035.
In the same order, the values of `c1ccsc1` [thiophene] + CCCCCC[n+]1ccc2ccccc2c1.N#C[S-] are 0.921 ± 0.058, 0.943 ± 0.059, 0.963 ± 0.061, 0.98 ± 0.06 and 0.998 ± 0.062.
As to `CCCCCCCCCC` [decane] + CCCCCC[n+]1ccc2ccccc2c1.N#C[S-], the activity coefficient (308.15 K) was 105 ± 7; the activity coefficient (318.15 K) stood at 96.7 ± 6.6; the activity coefficient (328.15 K) is 90.4 ± 6.2; the activity coefficient (338.15 K) is 84.1 ± 5.8; the activity coefficient (348.15 K) amounted to 78.4 ± 5.4; the activity coefficient (358.15 K) worked out at 73.4 ± 5. For the same compound, for the setting “368.15 K”, the activity coefficient turned out to be 68.1 ± 4.7.
As for `C#CCCCC` [1-hexyne] + CCCCCC[n+]1ccc2ccccc2c1.N#C[S-], the activity coefficient is 3.57 ± 0.24 (308.15 K); 3.64 ± 0.25 (318.15 K); 3.71 ± 0.25 (328.15 K); 3.78 ± 0.26 (338.15 K); 3.83 ± 0.26 (348.15 K); 3.9 ± 0.27 (358.15 K). The activity coefficient (368.15 K) came out at 3.96 ± 0.27.
In the case of `CC1CCCCC1` [methylcyclohexane] + CCCCCC[n+]1ccc2ccccc2c1.N#C[S-], the activity coefficient came to 24.2 ± 1.7 (308.15 K); 21.5 ± 1.5 (318.15 K); 19.8 ± 1.4 (328.15 K); 17.7 ± 1.2 (338.15 K); 16.4 ± 1.1 (348.15 K); 15.2 ± 1 (358.15 K). For the same compound, the activity coefficient (368.15 K) was 14 ± 1.
As for `C1CCCC1` [cyclopentane] + CCCCCC[n+]1ccc2ccccc2c1.N#C[S-], the activity coefficient (308.15 K) was 14.7 ± 1; the activity coefficient (318.15 K) is 13.4 ± 0.9; the activity coefficient (328.15 K) was found to be 12.3 ± 0.8; the activity coefficient (338.15 K) was 11.5 ± 0.8; the activity coefficient (348.15 K) worked out at 10.8 ± 0.7; the activity coefficient (358.15 K) stood at 10.2 ± 0.7. The activity coefficient (368.15 K) was 9.6 ± 0.65.
As for `CCC[N+](=O)[O-]` [1-nitropropane] + CCCCCC[n+]1ccc2ccccc2c1.N#C[S-], the activity coefficient was found to be 1.39 ± 0.09 (328.15 K); 1.38 ± 0.09 (338.15 K); 1.37 ± 0.09 (348.15 K); 1.37 ± 0.09 (358.15 K); 1.35 ± 0.09 (368.15 K).
`CO` [methanol] + CCCCCC[n+]1ccc2ccccc2c1.N#C[S-]: the activity coefficient (328.15 K) was 0.381 ± 0.033; the activity coefficient (338.15 K) is 0.378 ± 0.033; the activity coefficient (348.15 K) was determined as 0.375 ± 0.033; the activity coefficient (358.15 K) is 0.376 ± 0.033; the activity coefficient (368.15 K) was found to be 0.37 ± 0.033.
In the same order, the values of `C1CCOC1` [tetrahydrofuran] + CCCCCC[n+]1ccc2ccccc2c1.N#C[S-] are 1.46 ± 0.1, 1.47 ± 0.1, 1.48 ± 0.1, 1.48 ± 0.1 and 1.5 ± 0.1.
The corresponding values for `c1ccncc1` [pyridine] + CCCCCC[n+]1ccc2ccccc2c1.N#C[S-] are 0.703 ± 0.047, 0.713 ± 0.048, 0.722 ± 0.048, 0.729 ± 0.048 and 0.745 ± 0.049.
Regarding `C#CCCCCC` [1-heptyne] + CCCCCC[n+]1ccc2ccccc2c1.N#C[S-], the activity coefficient reads like this: (308.15 K) 4.77 ± 0.33; (318.15 K) 4.85 ± 0.33; (328.15 K) 4.93 ± 0.34; (338.15 K) 5.02 ± 0.34; (348.15 K) 5.09 ± 0.35; (358.15 K) 5.16 ± 0.35. Under “368.15 K”, the activity coefficient is 5.21 ± 0.36.
As to `C1CCCCC1` [cyclohexane] + CCCCCC[n+]1ccc2ccccc2c1.N#C[S-], the activity coefficient was found to be 15.4 ± 1.1 (308.15 K); 14.2 ± 1 (318.15 K); 13.3 ± 0.9 (328.15 K); 12.4 ± 0.8 (338.15 K); 11.6 ± 0.8 (348.15 K); 10.8 ± 0.7 (358.15 K). For the same compound, the activity coefficient (368.15 K) turned out to be 10.2 ± 0.7.
As for `CC(C)CC(C)(C)C` [2,2,4-trimethylpentane] + CCCCCC[n+]1ccc2ccccc2c1.N#C[S-], the activity coefficient (308.15 K) came out at 96.5 ± 6.6; the activity coefficient (318.15 K) came to 79.7 ± 5.5; the activity coefficient (328.15 K) amounted to 68.6 ± 4.7; the activity coefficient (338.15 K) was 57.7 ± 4; the activity coefficient (348.15 K) turned out to be 50.8 ± 3.5; the activity coefficient (358.15 K) stood at 44.5 ± 3. The activity coefficient (368.15 K) is 39.1 ± 2.7.
For `CCCCCCCCC` [nonane] + CCCCCC[n+]1ccc2ccccc2c1.N#C[S-], the activity coefficient runs as follows: (308.15 K) 79.7 ± 5.5; (318.15 K) 73.2 ± 5; (328.15 K) 68.2 ± 4.7; (338.15 K) 62.5 ± 4.3; (348.15 K) 59 ± 4; (358.15 K) 54.5 ± 3.7. Under “368.15 K”, the activity coefficient turned out to be 51.3 ± 3.5.
